Assay results reported in patent US11497210B2, “Compositions and methods for long lasting disinfection” (RHODIA OPERATIONS, priority 2018, dated 2022).

Legend:
Enterobacter aerogenes [1] = test: RSS-24, EPA Protocol #01-1A residual self-sanitizing activity test (6 abrasion cycles); format: cell-based; settings: Table 5, 150 microliters, stainless steel
Method: In order to substantiate 24 hour long-term sanitization claims with the United States Environmental Protection Agency (EPA), compositions are evaluated with the residual self-sanitization (RSS) method, EPA Protocol #01-1A (https://www.epa.gov/sites/production/files/2015-09/documents/cloroxpcol_final.pdf). For validating longer term disinfection, all extant test protocols emulate the maximum amount of recontamination and abrasion by touching and wiping anticipated before reapplication, typically a 24 hour period. An intermediate protocol with approximately half the level abrasion and re-soiling challenge to a surface is presented here as the “RSS-12 h” test protocol. […]
The test substrate is allowed to dry overnight and then finally inoculated again (sanitizer test) for 5 minutes, followed by neutralization of the entire substrate. […] Surviving bacteria are then counted as the number of colonies. […]
Formula C was then further evaluated by (EPA) Protocol #01-1A residual self-sanitizing activity test with 6 alternating abrasion cycles (wet and dry each) for a 24 hour claim. […] When evaluated with 150 microliters of Formula C on a (1×1) steel substrate with Enterobacter aerogenes, >3 LR were achieved as required by the test (Table 5), indicating a pass for RSS-24.

Enterobacter aerogenes [2] = test: RSS-12 h residual self-sanitizing test (modified EPA Protocol #01-1A, 3 wear cycles); format: cell-based; settings: 150 microliters
Method: In order to substantiate 24 hour long-term sanitization claims with the United States Environmental Protection Agency (EPA), compositions are evaluated with the residual self-sanitization (RSS) method, EPA Protocol #01-1A (https://www.epa.gov/sites/production/files/2015-09/documents/cloroxpcol_final.pdf). For validating longer term disinfection, all extant test protocols emulate the maximum amount of recontamination and abrasion by touching and wiping anticipated before reapplication, typically a 24 hour period. An intermediate protocol with approximately half the level abrasion and re-soiling challenge to a surface is presented here as the “RSS-12 h” test protocol.
Long lasting disinfection claims are substantiated by the RSS test, which challenges the applied composition by subjecting it to recontamination (re-inoculation with microorganisms) and abrasion (wear cycles). An intermediate test protocol, with approximately half the number of re-inoculations and wear cycles (“RSS-12 h”) is used to predict disinfection that is durable up to 12 hours before reapplication of the test product. As outlined in FIG. 1, this procedure requires preparation of the test bacterial (microbial) culture over the first week (see EPA Protocol #01-1A) followed by testing in week 2.
The testing involves inoculating the surface with bacteria, followed by application of the product on the substrate and allowing it to dry. The substrate may be glass, polycarbonate, or steel. This substrate is then subjected to an abrasion—re-inoculation regime of 3 “wear cycles”. The abrasion is conducted with a 1084 gwt. rectangular steel block covered with a cloth with an underlying thin polyurethane-foam layer. Each wear cycle is composed of a “dry” abrasion and a “wet” abrasion, the latter with the cloth cover having been wet with a mist of water using a Preval® sprayer. Each abrasion (dry/wet) is characterized by a back and forth motion of the block across the test substrate. Each abrasion cycle is followed by re-inoculation the surface with a bacterial culture. The RSS-12 h involves a 3-abrasion cycle/3-inoculations test as compared to the full RSS test that outlines a 6-abrasion cycle/6-inoculation test regimen. All other details of the test method are as outlined in the EPA Protocol #01-1A.
The test substrate is allowed to dry overnight and then finally inoculated again (sanitizer test) for 5 minutes, followed by neutralization of the entire substrate. Surviving bacteria is then harvested off the surface and cultured with serial dilutions on agar plates, allowing colony formation over 24-48 hours. Surviving bacteria are then counted as the number of colonies. […] The bacteria in this test may be substituted for other microorganisms such as fungi or viruses. In an embodiment, microorganisms are selected from gram-positive bacteria (e.g Staphylococcus aureus), gram-negative bacteria (e.g. Enterobacter aerogenes), fungi, enveloped viruses, non-enveloped viruses, and combinations thereof.
Films prepared from Formula C were evaluated using RSS-12 h protocol as described above, a modified version the residual self-sanitization (RSS) method, EPA Protocol #01-1A. Protocol #01-1A is a method approved by the EPA for measuring long-term sanitization claims (i.e., “kill later” durability claim). Protocol #01-1A, the entire contents of which are incorporated by reference, measures the residual self-sanitizing activity of dried chemical residues (films) on inanimate, hard, non-porous surfaces against bacteria: Staphylococcus aureus, Klebsiella pneumoniae, and/or Enterobacter aerogenes. In particular, surfaces are inoculated, treated with test product, allowed to dry, then abraded under alternating wet and dry conditions, which are interspersed with several re-inoculations. (FIG. 1).
The test shown in Table 3 was conducted on a steel substrate (1 inch×1 inch) with Enterobacter aerogenes, a gram negative bacteria which is typically more resistant. […]

[3] = Table 4, reduced quat content, stainless steel

## Triton X-100
Enterobacter aerogenes [1]
  Avg. cfu/carrier: 1.85E+07 cfu/carrier
  Log: 7.27
Enterobacter aerogenes [2]; Table 3, log of surviving cfu, stainless steel
  Log: 6.48
Enterobacter aerogenes [2]; Table 3, stainless steel
  Avg. cfu/carrier: 3.00E+06 cfu/carrier
  geom. mean: 6.48
Enterobacter aerogenes [2]; [3]
  Avg. cfu/carrier: 1.29E+06 cfu/carrier
  Log: 6.11
Enterobacter aerogenes [2]; stainless steel 1 inch x 1 inch, surviving population after final inoculation, triplicate
  avg. cfu/surface: 3.00E+06 cfu/surface
